Entries after “also recorded” stand apart in the source; their conditions may differ. Where two headings read alike, the source gives them in different places.
Assays:
BAE cells = test: Proliferation and viability of cultured cells, 72 hr, cell count; format: cell-based, bovine; conditions: for IC50: Bos taurus, 72 h, BAE, 72 hr
Protocol: (§1) BCE (Folkman et al. 1979), BAE, BxPC-3 (ATCC, Bethesda, Md.), HT1080 (Jiang et al., 1999), 3T3 (ATCC, Bethesda, Md.) and BVSM (Hogg et al., 1997) cells were harvested and cultured as indicated. Cells (0.5 mL of 30,000 or 100,000 cells per mL) were seeded into gelatinized 24-well culture plates (Corning Costar, Corning, N.Y.) in Dulbecco's Modified Eagle's Medium (DMEM, JHR Bioscience, Lenexa, Kans.) containing 10% fetal calf serum (FCS, Intergen Comp., Purchase, N.Y.) and 1% Glutamine Pen-Strep (GPS, Irvine Scientific, Santa Ana, Va.) and allowed to attach for 24 hr in 10% CO2 at 37° C. The media was then replaced with DMEM and 1% GPS containing 0 to 1 mM GSAO or GSAA and either 5% bovine calf serum (BCS, HyClone, Logan, Utah) and 1 ng per mL FGF-2 (Genzyme, Cambridge, Mass.) or 5% BCS and 10 ng per mL VEGF (Genzyme, Cambridge, Mass.) for BCE cells, 5% or 10% BCS for BAE cells, 5% BCS for BVSM cells, and 5% FCS for BxPC-3, HT1080 and 3T3 cells. Cells were cultured for 0 to 72 hr in 10% CO2 at 37° C. then dispersed in trypsin/EDTA (GibcoBRL, Granc Island, N.Y.), resuspended in Coulter balanced electrolyte solution and counted with a Z1 Coulter counter (Coulter Corp., Miami, Fla.). In all experiments there were two control wells containing DMEM with 1% GPS and either 5% BCS for BCE cells, 2% BCS for BAE and BVSM cells, or 2% FCS for BxPC-3, HT1080 and 3T3 cells. These wells represented no to limited proliferation.

BxPC-3 cells = test: as above; format: cell-based, human
Protocol: (§2) FIG. 19. Effect of GSAO on Proliferation of non-endothelial cells. 15,000 BxPC-3 (part A), HT1080 (part B), 3T3 (part C) or BVSM (part D) cells per well were seeded into gelatinised 24-well culture plates and allowed to attach for 24 hr. The media was then replaced with DMEM containing 0 to 1 mM GSAO or GSAA and either 5% BCS (part D) or 5% FCS (parts A, B and C). Cells were cultured for 72 hr and then dispersed and counted. The dotted lines indicate the cell number in control wells containing DMEM and 2% BCS (part D) or 2% FCS (parts A, B and C) which represented no to limited proliferation. The data points and errors represent the mean and range of duplicate wells.
as §1

HT1080 cells = test: as above; format: cell-based, human
Protocol: as §2, §1

3T3 fibroblasts = test: as above; format: cell-based, murine
Protocol: as §2, §1

Human bone marrow cells = test: 12 day bone marrow culture assay, granulocyte/macrophage colonies; format: cell-based; conditions: 12 days
Protocol: FIG. 20. Effect of GSAO on Proliferation of bone marrow progenitor cells. Human bone marrow cells were incubated in semi-solid agar containing 20% BCS, […] and 0 to 100 μM GSAA or GSAO for 12 days. Granulocyte/macrophage colonies of 40 or more cells were counted under an inverted microscope. The data points and errors represent the mean and SE of quadruplicate cultures.
GSAO reduced the number of granulocyte/macrophage colonies in a 12 day human bone marrow culture assay with an IC50 of ˜30 μM (FIG. 20). […] Human bone marrow cells (˜5×10^5 cells per mL) were added to semi-solid agar in DMEM containing 20% BCS, 5 ng per mL IL-3 and 0 to 100 μM GSM or GSAO. The cultures were incubated for 12 days at 37° C. and 5% CO2 and clusters of 40 or more cells were counted under an inverted microscope according to Metcalf (1977).

HDMVE cells = test: Endothelial cell tube formation in Matrigel; format: cell-based, human; conditions: 18 hours; for effect on tube formation: 0.1, 1 or 100 μM
Protocol: FIG. 21. GSAO perturbs endothelial cell tube formation in Matrigel. Matrigel (100 μl) was added to wells of 96 well plates and allowed to gel for 60 minutes at 37° C. HDMVE cells (10,000 cells per well) in complete media containing 0.1, 1 or 100 μM GSAA or GSAO were seeded onto the Matrigel and the plates were incubated in 5% CO2, 37° C. The phase contrast micrographs were taken after 18 hours incubation.
Endothelial cells arrange into tube-like structures when seeded onto three-dimensional matrices such as the extracellular matrix preparation, Matrigel, or collagen. The tubes can be considered to represent immature blood vessels. Matrigel (100 μl, Becton Dickinson, Bedford, Mass.) was added to wells of 96 well plates (Gibco BRL, Gaithersburg, Md.) and allowed to gel for 60 minutes at 37° C. Human dermal microvascular endothelial (HDMVE) cells were harvested and cultured as described by Stathakis et al. (1997). HDMVE cells (8,000 cells per well) in 150 μl of M199 (Gibco BRL, Gaithersburg, Md.) media containing 30% pooled human serum, 50 μg per mL Heparin (Sigma, St. Louis, Mo.), 100 μg per mL Endothelial Cell Growth Supplement (Gibco BRL, Gaithersburg, Md.) and 0.1, 1 or 100 μM GSM or GSAO were seeded onto the Matrigel and the plates were incubated for 18 hours in 5% CO2, 37° C. Phase contrast micrographs of the wells were collected.

SMILES | effect on proliferation or viability of BAE cells (BAE cells; not shown) | effect on proliferation or viability (BxPC-3 cells; BxPC-3, up to a concentration of 1 mM) | effect on proliferation or viability (HT1080 cells; HT1080, up to a concentration of 1 mM) | effect on proliferation or viability (3T3 fibroblasts; 3T3, up to a concentration of 1 mM) | effect on colony numbers (Human bone marrow cells; up to a concentration of 100 μM) | effect on tube formation (HDMVE cells) | IC50 (BAE cells; 5% BCS, read-out: Proliferation IC50) | IC50 (BAE cells; 5% BCS, >90% confluent, read-out: Viability IC50) | IC50 (BAE cells; 10% BCS, read-out: Proliferation IC50) | IC50 (BAE cells; 10% BCS, >90% confluent, read-out: Viability IC50) | Proliferation IC50 (BxPC-3 cells; BxPc3, 5% FCS, 72 hr) | IC50 (BxPC-3 cells; Homo sapiens, BXPC-3, BxPc3, 5% FCS, 72 hr) | Proliferation IC50 (HT1080 cells; HT1080, 5% FCS, 72 hr) | IC50 (HT1080 cells; Homo sapiens, HT-1080, HT1080, 5% FCS, 72 hr) | Proliferation IC50 (3T3 fibroblasts; 3T3, 5% FCS, 72 hr) | IC50 (3T3 fibroblasts; Mus musculus, Fibroblast, 3T3, 5% FCS, 72 hr) | IC50 (Human bone marrow cells; Homo sapiens, Bone marrow cell, 288 h, semi-solid agar, 20% BCS, IL-3, read-out: IC50 for reduction of the number of granulocyte/macrophage colonies) | concentration at which effects on tube formation were apparent (HDMVE cells) | concentration at which effects on tube formation were marked (HDMVE cells)
N[C@@H](CCC(=O)N[C@@H](CSCC(=O)Nc1ccc([As](=O)(O)O)cc1)C(=O)NCC(=O)O)C(=O)O [GSAA, 4-(N-(S-glutathionylacetyl)amino)phenylarsonic acid, reference compound] | did not effect either proliferation or viability | no significant effect | no significant effect | no significant effect | no effect | no apparent effect |  |  |  |  |  |  |  |  |  |  |  |  | 
NC(CCC(=O)NC(CSCC(=O)Nc1ccc([As]=O)cc1)C(=O)NCC(=O)O)C(=O)O (centres unmarked) [GSAO, 4-(N-(S-glutathionylacetyl)amino)-phenylarsenoxide] |  |  |  |  |  | perturbed tube formation | ~0.02 µM | ~8 µM | ~0.2 µM | ~10 µM | did not affect the proliferation; also recorded: No effect | ~40 µM | did not affect the proliferation; also recorded: No effect | ~40 µM | did not affect the proliferation; also recorded: No effect | ~40 µM | ~30 µM | 0.1 µM | 100 µM
